Reference: patent publication US10344017B2, “Pyrrolcarboxamide derivatives for the inhibition of ERK5” (CANCER RESEARCH TECHNOLOGY LIMITED, priority 2014, dated 2019)

Target: T1, ERK5 (Homo sapiens, UniProt Q13164)
T1 construct: made in house
Experiment: ERK5 IMAP assay (fluorescence polarisation)
Assay type: biochemical
Details: average (e.g. geometric mean) where more than one data point; read-out: ERK5 IC50
Description: The assay buffer was prepared using 0.01% Tween®-20 5× stock, supplied as part of IMAP™ FP Progressive Binding System Kit (Molecular Devices R7436) and diluted to 1× using miliQ H2O. 1 μL of a 1M DTT stock was added for every 1 mL of 1× assay buffer to give a final concentration of 1 mM DTT.
ERK5 was expressed and purified at CRT-DL by Leon Pang and Sue Young. Aliquots were stored at −80° C. The ERK5 working solution was used at a […] final dilution in assay buffer. […] For 1 plate, […] of ERK5 stock was added to 2262 μL of 1× assay buffer.
To prepare the IMAP™ binding solution for one plate 20.5 μL of IMAP™ binding reagent stock, 1476 μL of 1× binding buffer A (60%), and 984 μL of binding buffer B (40%) (IMAP™ FP Progressive screening express kit (Molecular Devices R8127) was added to 9819.5 μL of milliQ H2O.
1 μL of inhibitor (in 60:40 H2O/DMSO) or 60:40 H2O/DMSO (for controls and blanks) were dry-spotted into the relevant wells of a 384-well assay plate using the MATRIX PlateMate® Plus. 5 μL of ERK5 working solution was added to test and control wells, and 5 μL of 1× assay buffer added to blanks; 4 μL of ATP/substrate working solution was added to all wells using a Matrix multichannel pipette. The plate was sealed using DMSO resistant clear seal and incubated for 2 h at 37° C. 1 μL of the kinase reaction mixture from the first plate was dry spotted into a second 384-well assay plate using the MATRIX PlateMate® Plus. 9 μL of assay buffer was added, followed by 30 μL of IMAP™ binding solution using a multichannel pipette. The plate was incubated at RT in darkness for 2 h. The assay plate was then read on an Analyst HT plate reader (Molecular Devices) using the settings described below: […]

T1 sequence (Q13164 whole entry): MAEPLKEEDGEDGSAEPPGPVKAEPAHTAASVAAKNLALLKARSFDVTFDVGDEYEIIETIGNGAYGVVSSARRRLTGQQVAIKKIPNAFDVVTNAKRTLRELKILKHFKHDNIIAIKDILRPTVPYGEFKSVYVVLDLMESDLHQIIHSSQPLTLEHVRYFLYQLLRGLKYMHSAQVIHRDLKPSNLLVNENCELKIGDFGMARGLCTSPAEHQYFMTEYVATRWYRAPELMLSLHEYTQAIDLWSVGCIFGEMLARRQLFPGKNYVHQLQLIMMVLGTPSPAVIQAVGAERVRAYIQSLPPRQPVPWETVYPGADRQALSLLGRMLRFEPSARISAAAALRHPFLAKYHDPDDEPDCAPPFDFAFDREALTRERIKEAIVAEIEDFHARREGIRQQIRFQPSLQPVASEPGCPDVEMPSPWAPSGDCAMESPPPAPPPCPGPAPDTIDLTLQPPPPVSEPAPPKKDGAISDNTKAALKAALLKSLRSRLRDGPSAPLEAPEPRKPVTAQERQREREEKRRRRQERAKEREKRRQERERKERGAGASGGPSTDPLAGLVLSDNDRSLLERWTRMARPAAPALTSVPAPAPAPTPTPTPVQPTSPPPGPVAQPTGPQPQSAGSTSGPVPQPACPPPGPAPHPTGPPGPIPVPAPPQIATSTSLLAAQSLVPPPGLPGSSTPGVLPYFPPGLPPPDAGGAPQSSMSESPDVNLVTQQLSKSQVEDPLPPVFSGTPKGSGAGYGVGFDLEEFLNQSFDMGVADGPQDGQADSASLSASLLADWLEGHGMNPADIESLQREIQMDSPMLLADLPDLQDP

IC50 [nM]	Compound
17.6	Cn1ccnc1Cn1cc(NC(=O)c2cc(C(=O)c3c(Cl)ccc(Cl)c3F)c[nH]2)cn1 [Example 51, 4-(3,6-Dichloro-2-fluorobenzoyl)-N-(1-((1-methyl-1H-imidazol-2-yl)methyl)-1H-pyrazol-4-yl)-1H-pyrrole-2-carboxamide]
2480	Cc1cc(NC(=O)c2cc(C(=O)c3c(Cl)ccc(Cl)c3F)c[nH]2)no1 [Example 58, 4-(3,6-Dichloro-2-fluorobenzoyl)-N-(5-methylisoxazol-3-yl)-1H-pyrrole-2-carboxamide]
26.9	COc1ccc(Cl)c(C(=O)c2c[nH]c(C(=O)Nc3ccc(NC4CCN(C)CC4)nc3)c2)c1F [Example 61, 4-(6-Chloro-2-fluoro-3-methoxybenzoyl)-N-(6-((1-methylpiperidin-4-yl)amino)pyridin-3-yl)-1H-pyrrole-2-carboxamide]
84.3	COc1ccc(Cl)c(C(=O)c2c[nH]c(C(=O)Nc3cnn(C)c3)c2)c1F [Example 62, 4-(6-Chloro-2-fluoro-3-methoxybenzoyl)-N-(1-methyl-1H-pyrazol-4-yl)-1H-pyrrole-2-carboxamide]
104	COCCn1cc(NC(=O)c2cc(C(=O)c3c(Cl)ccc(OC)c3F)c[nH]2)cn1 [Example 63, 4-(6-Chloro-2-fluoro-3-methoxybenzoyl)-N-(1-(2-methoxyethyl)-1H-pyrazol-4-yl)-1H-pyrrole-2-carboxamide]
2990	COc1ccc(Cl)c(C(=O)c2c[nH]c(C(=O)Nc3cnn(C4CCN(CC(F)(F)F)CC4)c3)c2)c1F [Example 64, 4-(6-Chloro-2-fluoro-3-methoxybenzoyl)-N-(1-(1-(2,2,2-trifluoroethyl)piperidin-4-yl)-1H-pyrazol-4-yl)-1H-pyrrole-2-carboxamide]
53.8	COc1ccc(Cl)c(C(=O)c2c[nH]c(C(=O)Nc3cnn(Cc4ccccn4)c3)c2)c1F [Example 65]
16.6	COc1ccc(Cl)c(C(=O)c2c[nH]c(C(=O)Nc3cnn(Cc4cccnc4)c3)c2)c1F [Example 66, 4-(6-Chloro-2-fluoro-3-methoxybenzoyl)-N-(1-(pyridin-3-ylmethyl)-1H-pyrazol-4-yl)-1H-pyrrole-2-carboxamide]
16.3	COc1ccc(Cl)c(C(=O)c2c[nH]c(C(=O)Nc3cnn(Cc4ccncc4)c3)c2)c1F [Example 67]
19.9	COc1ccc(Cl)c(C(=O)c2c[nH]c(C(=O)Nc3cnn(CC4CCN(C)CC4)c3)c2)c1F [Example 68, 4-(6-Chloro-2-fluoro-3-methoxybenzoyl)-N-(1-((1-methylpiperidin-4-yl)methyl)-1H-pyrazol-4-yl)-1H-pyrrole-2-carboxamide]
173	COc1ccc(F)c(C(=O)c2c[nH]c(C(=O)NC3CCN(C)CC3)c2)c1Cl [Example 71, 4-(2-chloro-6-fluoro-3-methoxybenzoyl)-N-(1-methylpiperidin-4-yl)-1H-pyrrole-2-carboxamide]
255	COc1ccc(F)c(C(=O)c2c[nH]c(C(=O)Nc3cccnc3)c2)c1Cl [Example 73, 4-(2-chloro-6-fluoro-3-methoxybenzoyl)-N-(pyridin-3-yl)-1H-pyrrole-2-carboxamide]
202	COc1ccc(Cl)c(C(=O)c2c[nH]c(C(=O)Nc3cncnc3)c2)c1F [Example 74, 4-(6-chloro-2-fluoro-3-methoxybenzoyl)-N-(pyrimidin-5-yl)-1H-pyrrole-2-carboxamide]
437	COc1ccc(F)c(C(=O)c2c[nH]c(C(=O)Nc3cncnc3)c2)c1Cl [Example 75, 4-(2-chloro-6-fluoro-3-methoxybenzoyl)-N-(pyrimidin-5-yl)-1H-pyrrole-2-carboxamide]
1580	CCc1ncccc1NC(=O)c1cc(C(=O)c2c(F)cccc2Cl)c[nH]1 [Example 76, 4-(2-Chloro-6-fluorobenzoyl)-N-(2-ethylpyridin-3-yl)-1H-pyrrole-2-carboxamide]
7980	O=C(Nc1cccnc1N1CCCC1)c1cc(C(=O)c2c(F)cccc2Cl)c[nH]1 [Example 80, 4-(2-Chloro-6-fluorobenzoyl)-N-(2-(pyrrolidin-1-yl)pyridin-3-yl)-1H-pyrrole-2-carboxamide]

Second part, the compound before the results:

Compound	IC50 [nM]
O=C(Nc1cnc(N2CCNCC2)nc1)c1cc(C(=O)c2c(F)cccc2Cl)c[nH]1 [Example 26, 4-(2-Chloro-6-fluorobenzoyl)-N-(2-(piperazin-1-yl)pyrimidin-5-yl)-1H-pyrrole-2-carboxamide]	88.8
O=C(Nc1cnc(N2CCC(O)CC2)nc1)c1cc(C(=O)c2c(F)cccc2Cl)c[nH]1 [Example 28, 4-(2-Chloro-6-fluorobenzoyl)-N-(2-(4-hydroxypiperidin-1-yl)pyrimidin-5-yl)-1H-pyrrole-2-carboxamide]	2230
O=C(Nc1cnc(N2CCC(O)CC2)nc1)c1cc(C(=O)c2c(Cl)ccc(Cl)c2F)c[nH]1 [Example 29, 4-(3,6-Dichloro-2-fluorobenzoyl)-N-(2-(4-hydroxypiperidin-1-yl)pyrimidin-5-yl)-1H-pyrrole-2-carboxamide]	537
CN1CCC(Nc2ccc(NC(=O)c3cc(C(=O)c4c(Cl)ccc(Cl)c4F)c[nH]3)cn2)CC1 [Example 32, 4-(3,6-Dichloro-2-fluorobenzoyl)-N-(6-((1-methylpiperidin-4-yl)amino)pyridin-3-yl)-1H-pyrrole-2-carboxamide]	23.8
O=C(Nc1ccnc(Cl)c1)c1cc(C(=O)c2c(F)cccc2Cl)c[nH]1 [Example 34, 4-(2-Chloro-6-fluorobenzoyl)-N-(2-chloropyridin-4-yl)-1H-pyrrole-2-carboxamide]	2320
O=C(Nc1ccnc(N2CCCC2)c1)c1cc(C(=O)c2c(F)cccc2Cl)c[nH]1 [Example 35, 4-(2-Chloro-6-fluorobenzoyl)-N-(2-(pyrrolidin-1-yl)pyridin-4-yl)-1H-pyrrole-2-carboxamide]	523
CN1CCN(c2cc(NC(=O)c3cc(C(=O)c4c(F)cccc4Cl)c[nH]3)ccn2)CC1 [Example 36, 4-(2-Chloro-6-fluorobenzoyl)-N-(2-(4-methylpiperazin-1-yl)pyridin-4-yl)-1H-pyrrole-2-carboxamide]	137
CN1CCN(c2cc(NC(=O)c3cc(C(=O)c4c(Cl)ccc(Cl)c4F)c[nH]3)ccn2)CC1 [Example 37, 4-(3,6-Dichloro-2-fluorobenzoyl)-N-(2-(4-methylpiperazin-1-yl)pyridin-4-yl)-1H-pyrrole-2-carboxamide]	36
O=C(Nc1ccnc(N2CCOCC2)c1)c1cc(C(=O)c2c(Cl)ccc(Cl)c2F)c[nH]1 [Example 38, 4-(3,6-Dichloro-2-fluorobenzoyl)-N-(2-morpholinopyridin-4-yl)-1H-pyrrole-2-carboxamide]	343
COc1cc(NC(=O)c2cc(C(=O)c3c(F)cccc3Cl)c[nH]2)ccn1 [Example 40, 4-(2-Chloro-6-fluorobenzoyl)-N-(2-methoxypyridin-4-yl)-1H-pyrrole-2-carboxamide]	1830
O=C(Nc1cnn(C2CCN(CC(F)(F)F)CC2)c1)c1cc(C(=O)c2c(Cl)ccc(Cl)c2F)c[nH]1 [Example 42, 4-(3,6-Dichloro-2-fluorobenzoyl)-N-(1-(1-(2,2,2-trifluoroethyl)piperidin-4-yl)-1H-pyrazol-4-yl)-1H-pyrrole-2-carboxamide]	3550
CCN(CC)CCn1cc(NC(=O)c2cc(C(=O)c3c(Cl)ccc(Cl)c3F)c[nH]2)cn1 [Example 43, 4-(3,6-Dichloro-2-fluorobenzoyl)-N-(1-(2-(diethylamino)ethyl)-1H-pyrazol-4-yl)-1H-pyrrole-2-carboxamide]	207
CCn1cc(NC(=O)c2cc(C(=O)c3c(Cl)ccc(Cl)c3F)c[nH]2)cn1 [Example 46, 4-(3,6-Dichloro-2-fluorobenzoyl)-N-(1-ethyl-1H-pyrazol-4-yl)-1H-pyrrole-2-carboxamide]	66.5
COCCn1cc(NC(=O)c2cc(C(=O)c3c(Cl)ccc(Cl)c3F)c[nH]2)cn1 [Example 47, 4-(3,6-Dichloro-2-fluorobenzoyl)-N-(1-(2-methoxyethyl)-1H-pyrazol-4-yl)-1H-pyrrole-2-carboxamide]	75.2
O=C(Nc1cnn(Cc2ccccn2)c1)c1cc(C(=O)c2c(Cl)ccc(Cl)c2F)c[nH]1 [Example 48, 4-(3,6-Dichloro-2-fluorobenzoyl)-N-(1-(pyridin-2-ylmethyl)-1H-pyrazol-4-yl)-1H-pyrrole-2-carboxamide]	80.7
O=C(Nc1cnn(Cc2cccnc2)c1)c1cc(C(=O)c2c(Cl)ccc(Cl)c2F)c[nH]1 [Example 49, 4-(3,6-Dichloro-2-fluorobenzoyl)-N-(1-(pyridin-3-ylmethyl)-1H-pyrazol-4-yl)-1H-pyrrole-2-carboxamide]	20.2
O=C(Nc1cnn(Cc2ccncc2)c1)c1cc(C(=O)c2c(Cl)ccc(Cl)c2F)c[nH]1 [Example 50, 4-(3,6-Dichloro-2-fluorobenzoyl)-N-(1-(pyridin-4-ylmethyl)-1H-pyrazol-4-yl)-1H-pyrrole-2-carboxamide]	21
